Laboratory results: patent publication US20170035793A1, “Use of P2X Purinergic Receptor Agonists to Enhance Insulin Secretion In Pancreatic Beta Cells” (priority 2010, published 2017)
Entries after “also recorded” stand apart in the source; their conditions may differ.

Experiments:
[1] = test system: human islets; assay: ATP-induced (or α,β meATP-induced) insulin secretion in human islets with antagonists or blockers; format: cell-based; details: nominal 0 Ca2+ (+1 mM EGTA), ATP 10 μM, α,β meATP 100 μM
Excerpt: (§1) Islet Isolation. Islets were isolated as previously described (57). Monkey islets were isolated from cynomolgus monkeys (Macacca fascicularis) >4 years of age at the time of pancreas procurement, as previously described (58). Pig pancreata were procured from the local slaughterhouse. Mice (C57BL/6) and rat (Lewis rat; Harlan) islets were isolated using a rodent-islet isolation technique (59). All animal protocols were approved by the University of Miami Care and Use Committee. Human pancreatic islets were obtained from the Human Islet Cell Processing Facility at the Diabetes Research Institute, University of Miami Miller School of Medicine or from the Islet Cell Resource basic science islet distribution program, Islet Cell Resource Centers (ICRs) Consortium, Division of Clinical Research, National Center for Research Resources, National Institutes of Health. Human islets were dissociated into single cells using enzyme-free cell dissociation buffer (Invitrogen). Islets and islets cells from Q:1 all species were cultured identically (37° C. and 5% CO2) inCMRL Q:2 medium-1066 (Invitrogen), niacinamide (10 mM; Sigma), ITS (BD Biosciences), Zn2SO4 (15 μM, Sigma), GlutaMAX (2 mM; Invitrogen), Hepes (25 mM; Sigma), FBS (10%; Invitrogen), and penicillinstreptomycin (100 IU/mL-100 μg/mL; Invitrogen).
Insulin and Glucagon Secretion. Insulin and glucagon secretion were measured as previously described (8, 36). A high-capacity automated perifusion system was developed to dynamically measure hormone secretion from pancreatic islets. A low pulsatility peristaltic pump pushed Hepes-buffered solution (125 mM NaCl, 5.9 mM KCl, 2.56 mM CaCl2, 1 mM MgCl2, 25 mM Hepes, and 0.1% BSA, pH 7.4 at a perifusion rate of 100 μL/min) through a column containing 100 pancreatic islets immobilized in Bio-Gel P-4 Gel (BioRad). Except when otherwise stated, glucose concentration was adjusted to 3 mM for all experiments. Stimuli were applied with the perifusion buffer. The perifusate was collected in an automatic fraction collector designed for a 96-well plate format. The columns containing the islets and the perifusion solutions were kept at 37° C., and the perifusate in the collecting plate was kept at <4° C. Perifusates were collected every 1 min. Hormone release in the perifusate was determined with the human or mouse Endocrine LINCOplex Kit following manufacturer's instructions (Lincoresearch). Human islet preparations varied considerably in their quality. Thus, the magnitudes of the responses to different stimuli were compared with the same recording or using recordings from the same preparation.

[2] = test system: human β cells; assay: [Ca2+]i imaging (Fura-2) of glucose-responsive human islet cells; format: cell-based; details: ATPγS 50 μM
Excerpt: as §1
[Ca^2+]i; Imaging. [Ca^2+]i imaging was performed as previously described (8, 36). Dispersed islet cells were immersed in Hepes-buffered solution (125 mMNaCl, 5.9 mMKCl, 2.56 mMCaCl2, 1 mMMgCl2, 25 mMHepes, and 0.1% BSA, pH7.4). Glucose was added to give a final concentration of 3 mM. Islets or dispersed islet cells were incubated in Fura-2 AM (2 μM; 1 h) and placed in a closed small volume imaging chamber (Warner Instruments). Stimuli were applied with the bathing solution. Islets loaded with Fura-2 were excited alternatively at 340 and 380 nm with a monochromator light source (Cairn Research Optoscan Monochromator; Cairn Research Ltd). Images were acquired with a Hamamatsu camera (Hamamatsu) attached to a Zeiss Axiovert 200 microscope (Carl Zeiss). Changes in the 340/380 fluorescence emission ratio over time were analyzed in individual islets and dispersed cells using Kinetic Imaging AQM Advance software (Kinetic Imaging). Peak changes in the fluorescence ratio constituted the response amplitude. Beta cells were distinguished from other endocrine cells by their [Ca^2+]i, responses to high glucose concentrations, and alpha cells were identified by their [Ca^2+]i responses to kainate (glutamate receptor agonist) (8, 36).

[3] = test system: monkey islets; assay: Insulin secretion from perifused monkey islets; format: cell-based, cynomolgus monkeys (Macacca fascicularis); details: increasing ATP concentrations
Excerpt: as §1, with “Islets and islets cells from Q:1 all species were cultured identically (37° C. and 5% CO2) inCMRL Q:2 medium-1066 (Invitrogen), niacinamide (10 mM; Sigma), ITS (BD Biosciences), Zn2SO4 (15 μM, Sigma), GlutaMAX (2 mM; Invitrogen), Hepes (25 mM; Sigma), FBS (10%; Invitrogen), and penicillinstreptomycin (100 IU/mL-100 μg/mL; Invitrogen).” left out
(§2) Insulin and Glucagon Secretion. Insulin and glucagon secretion were measured as previously described (8, 36). […] Hormone release in the perifusate was determined with the human or mouse Endocrine LINCOplex Kit following manufacturer's instructions (Lincoresearch). […]

[4] = test system: rat islets; assay: Insulin secretion from perifused rat islets; format: cell-based, rat (Lewis rat); details: 1-1,000 μM
Excerpt: as §1, with “Islets and islets cells from Q:1 all species were cultured identically (37° C. and 5% CO2) inCMRL Q:2 medium-1066 (Invitrogen), niacinamide (10 mM; Sigma), ITS (BD Biosciences), Zn2SO4 (15 μM, Sigma), GlutaMAX (2 mM; Invitrogen), Hepes (25 mM; Sigma), FBS (10%; Invitrogen), and penicillinstreptomycin (100 IU/mL-100 μg/mL; Invitrogen).” left out
as §2

[5] = test system: human islets; assay: Glucagon secretion from perifused human islets; format: cell-based
Excerpt: as §1, with “Islets and islets cells from Q:1 all species were cultured identically (37° C. and 5% CO2) inCMRL Q:2 medium-1066 (Invitrogen), niacinamide (10 mM; Sigma), ITS (BD Biosciences), Zn2SO4 (15 μM, Sigma), GlutaMAX (2 mM; Invitrogen), Hepes (25 mM; Sigma), FBS (10%; Invitrogen), and penicillinstreptomycin (100 IU/mL-100 μg/mL; Invitrogen).” left out
as §2

[6] = test system: mouse islets; assay: Glucagon secretion from perifused mouse islets; format: cell-based, Mice (C57BL/6)
Excerpt: as §1, with “Islets and islets cells from Q:1 all species were cultured identically (37° C. and 5% CO2) inCMRL Q:2 medium-1066 (Invitrogen), niacinamide (10 mM; Sigma), ITS (BD Biosciences), Zn2SO4 (15 μM, Sigma), GlutaMAX (2 mM; Invitrogen), Hepes (25 mM; Sigma), FBS (10%; Invitrogen), and penicillinstreptomycin (100 IU/mL-100 μg/mL; Invitrogen).” left out
as §2

[7] = biological target: T1, human P2X3 receptor (Homo sapiens, UniProt P56373); details: read-out: reported EC50 for the human P2X3 receptor; cited from earlier work
T1 sequence (P56373 1-397): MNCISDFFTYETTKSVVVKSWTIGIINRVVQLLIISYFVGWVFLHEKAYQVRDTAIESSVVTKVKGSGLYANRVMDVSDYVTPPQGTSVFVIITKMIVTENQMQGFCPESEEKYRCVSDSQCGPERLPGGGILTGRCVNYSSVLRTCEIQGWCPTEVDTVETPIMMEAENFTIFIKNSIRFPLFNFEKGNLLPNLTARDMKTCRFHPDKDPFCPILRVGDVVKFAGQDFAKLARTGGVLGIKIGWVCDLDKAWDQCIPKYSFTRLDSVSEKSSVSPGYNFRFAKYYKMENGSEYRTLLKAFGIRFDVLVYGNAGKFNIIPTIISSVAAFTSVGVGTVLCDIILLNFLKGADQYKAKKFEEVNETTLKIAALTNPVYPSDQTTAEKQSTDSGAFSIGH

[8] = biological target: T2, P2X7 receptors (Homo sapiens, UniProt Q99572); details: cited from earlier work
T2 sequence (Q99572 1-595): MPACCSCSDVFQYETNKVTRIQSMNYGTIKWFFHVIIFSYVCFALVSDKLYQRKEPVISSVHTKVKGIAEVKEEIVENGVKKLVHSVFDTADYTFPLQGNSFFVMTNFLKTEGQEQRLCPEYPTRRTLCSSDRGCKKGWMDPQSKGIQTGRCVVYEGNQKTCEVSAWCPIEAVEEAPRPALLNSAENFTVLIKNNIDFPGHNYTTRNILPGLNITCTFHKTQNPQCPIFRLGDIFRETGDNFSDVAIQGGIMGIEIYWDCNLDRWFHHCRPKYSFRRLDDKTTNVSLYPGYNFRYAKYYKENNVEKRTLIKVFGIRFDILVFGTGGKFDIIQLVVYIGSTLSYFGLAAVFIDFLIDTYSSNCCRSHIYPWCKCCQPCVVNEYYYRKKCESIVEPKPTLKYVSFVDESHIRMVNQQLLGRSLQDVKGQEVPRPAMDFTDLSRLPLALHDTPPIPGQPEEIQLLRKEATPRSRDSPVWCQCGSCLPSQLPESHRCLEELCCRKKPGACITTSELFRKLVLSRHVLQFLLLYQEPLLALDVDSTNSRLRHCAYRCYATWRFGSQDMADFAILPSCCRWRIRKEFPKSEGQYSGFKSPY

## Nc1ncnc2c1ncn2[C@@H]1O[C@H](COP(=O)(O)OP(=O)(O)OP(=O)(O)O)[C@@H](O)[C@H]1O [ATP]
[1]
  insulin responses to the agonist in the nominal absence of extracellular Ca2+: reduced; also recorded: strongly diminished
[2]; human β cells identified by response to high glucose (11 or 16 mM), recorded at 3 mM glucose, BzATP 50 μM
  [Ca2+]i response of β cells to the agonist: elicited repeatable [Ca^2+]i responses; also recorded: elicited large insulin and [Ca^2+]i, responses
[2]; human β cells, nominal 0 Ca2+ (+1 mM EGTA)
  [Ca2+]i responses to the agonist in the nominal absence of extracellular Ca2+: reduced [Ca^2+]i responses to ATP
[3]
  insulin response of monkey islets: responded to increasing concentrations of ATP like human islets
[4]
  insulin response of rat islets: No responses to ATP were observed; also recorded: neither ATP nor any of the other purinergic agonists tested stimulated insulin release; also recorded: only high concentrations of ATP (1 mM) induced small increases in insulin release
[5]
  glucagon response of human islets: stimulated small increases in glucagon secretion
[6]
  glucagon response of mouse islets: difficult to discern; also recorded: stimulated small increases in glucagon secretion
[7]
  EC50: ~0.39 µM
[8]
  ATP concentrations required for activation of homomeric P2X7 receptors: > 100
[8]; read-out: EC50 for activation of P2X7 receptors
  EC50: 100 µM
